From patent publication US20240091247A1, “INHIBITOR FOR CHRONIC MYELOID LEUKEMIA STEM CELLS” (Ohara Pharmaceutical Co., Ltd., priority 2021, published 2024)

Assays:
LXN [1] = experiment: LXN gene expression by microarray in K562 cells; type: cell-based; settings: 100 nM OR21, 1000 nM imatinib
Description: (§1) K562 cells (cell lines derived from CML) were purchased from JCRB cell bank and KBM5 cells (cell lines derived from CML) were provided by Dr. M. Beran (MD Anderson Cancer Center, University of Texas). These calls were cultured in an RPMI 1640 medium containing 10% fetal bovine serum (FBS) and 1% penicillin-streptomycin at 37° C. in atmosphere of 5% CO2.
(§2) After the culture, mRNA was collected and gene expression was comprehensively analyzed by microarrays.

LXN [2] = experiment: LXN protein expression by Western blotting, OR21 with TKI (FIG. 5); type: cell-based; settings: K562 and KBM5 cells, 100 nM OR21, 1000 nM imatinib, 2.5 nM dasatinib, 1, 2 and 3 days, corrected with β actin
Description: as §1
0, 24, and 48 hours after the cell seeding, 100 nM OR21, a DNA methyltransferase inhibitor, was added. […] After the culture, the cells were collected, dissolved, and determined for protein expression level of LXN by Western blotting. […] The expression level of LXN shown in FIG. 5 represents each expression level of the cases when the LXN expression under each condition was corrected with β actin and the expression level in the control was taken as 1.0.

[3] = tested on: stem cells or progenitor cells of CML; experiment: Mouse model of CML (recipient mice engrafted with GFP positive MIG-BCR-ABL1 myeloid cells); type: in vivo; settings: after 12 days of administration, OR21 1.35 mg/kg i.p., IM 150 mg/kg oral
Description: Recipient mice were engrafted with myeloid cells to which GFP positive MIG-BCR-ABL1 had been introduced and used as CML models. […] After administration of the drugs to each group for 12 days, the GFP positive cells in peripheral blood, bone marrow, and spleen were determined. Inter-group comparisons were performed by a significance test of Mann-Whitney U-tests (p<0.05, **p<0.01) in FIG. 1.

LXN [4] = experiment: LXN gene expression by microarray in KBM5 cells; type: cell-based; settings: 100 nM OR21, 1000 nM imatinib
Description: as §1, §2

stem cells of CML = experiment: Limiting dilution assay in secondarily transplanted mice; type: in vivo; settings: peripheral blood, 16 weeks after secondary transplantation; compared to vehicle or IM donor group
Description: Then, engraftment of GFP positive cells in the peripheral blood (PB) at 16 weeks after the secondary transplantation was determined and analyzed by limiting dilution assay. […] The bottom row of the table indicates the cell number required to be engrafted. The larger numbers mean that it is more difficult to engraft. It is noted that engraftment of GFP positive cells is defined to have a GFP positive rate of 0.5% or more in the peripheral blood of recipient mice. […] The higher plots or slope of the lines mean that it is more difficult to engraft.

DNMT1 = DNMT1 expression in K562 cells (FIG. 6); type: cell-based; settings: 100 nM azacytidine, decitabine or cytarabine
LXN [5] = experiment: LXN protein expression by Western blotting in K562 cells, azacytidine/decitabine/cytarabine with imatinib (FIG. 6); type: cell-based; settings: 100 nM azacytidine, decitabine or cytarabine, 1000 nM imatinib
Description: 0, 24, and 48 hours after the cell seeding, azacytidine (100 nM), decitabine (100 nM), or cytarabine (100 nM) was added to K562 cell culture, cultured for 2 days. […] After the culture, the cells were collected, dissolved, and determined for protein expression level of LXN by Western blotting. The expression level of LXN shown in FIG. 6 represents each expression level of the cases when the LXN expression under each condition was corrected with β actin and the expression level in the control was taken as 1.0.

SMILES	gene expression level of LXN in respect of the control (LXN [1]) [times]	protein expression level of LXN (LXN [2])	gene expression level of LXN in respect of the control (LXN [4]) [times]	expression of DNMT1 (DNMT1)	protein expression of LXN (LXN [5])	other results
CC[Si](CC)(CC)OC[C@H]1O[C@@H](n2cnc(N)nc2=O)C[C@@H]1O [OR21]	4.5	increase in the protein expression level of LXN over time	3.4	–	–	linage-negative cells (Lin-) in bone marrow [3]: decreased; Lin-Sca-1+c-Kit+ (LSK) cells ([3]; bone marrow): decreased; GFP positive cell rate ([3]; peripheral blood, bone marrow and spleen, compared to vehicle group): significant decrease; GFP positive cells in mice of the secondary transplantation (stem cells of CML): significantly reduced
Nc1ncn([C@@H]2O[C@H](CO)[C@@H](O)[C@H]2O)c(=O)n1 [azacytidine, 4-amino-1-β-D-ribofuranosyl-s-triazin-2(1H)-one]	–	–	–	reduced	–	–
Nc1ccn([C@@H]2O[C@H](CO)[C@@H](O)[C@@H]2O)c(=O)n1 [cytarabine]	–	–	–	did not exhibit inhibitory effect	no increase	–
Nc1ncn([C@H]2C[C@H](O)[C@@H](CO)O2)c(=O)n1 [decitabine, 4-amino-1-(2-deoxy-β-D-erythro-pentofuranosyl)-1,3,5-triazin-2(1H)-one]	–	–	–	reduced	increased	–
Cc1ccc(NC(=O)c2ccc(CN3CCN(C)CC3)cc2)cc1Nc1nccc(-c2cccnc2)n1 [imatinib]	1.3	almost no effect	1.9	–	–	–
